According to patent US12139815B2, “Methods for rapid detection of immunogenic epitopes in biothreat agents and emerging pathogens for peptide vaccines and therapeutics” (priority 2021, dated 2024):

Test system: antibodies from sera of mice immunized with Ft-ΔclpB
Assay type: binding, mouse

Sequence | enrichment in Experiment samples relative to Control samples (in words)
EGVITVEEGK (listed as Francisella tularensis) [SEQ ID NO: 8] | enriched
DNTTIIDGAGEK [SEQ ID NO: 7] | enriched
